Experimental data from PubChem BioAssay AID1053152 (Broad Institute, 2014).

Tested on: HepG2 TRIB1 mRNA expression, RT-qPCR, 6 h
Test: gene expression changes with sterol depletion – cell-based, HepG2, RT-PCR, cherry-pick, mechanism study for Trib1 inducer project, late-stage follow-up (AID 1053152)
Conditions: active compounds read high

In the case of `CN1C(=O)c2cc(NC(=O)c3ccc(C(F)(F)F)cc3)ccc2OC[C@@H]2O[C@H](CC(=O)NC3Cc4ccccc4C3)CC[C@@H]21`, the fold induction was 2.5.
